Tests used:
[1] = after oral dosing
Description: Data shown are mean±SD. *, P<0.05 for a given time point compared to time point 0 min. The arrow denotes time of capsule ingestion. Concentrations less than the level of 1.0 parts-per-billion (ppb) are noted as “<LOD”.

[2] = 40 mg rectal in 3 mL HEC gel
Description: The entire contents of the syringe were applied rectally as a bolus. Breath acetone and 2-butanone levels were monitored throughout the experiment by delivering single full breath samples directly into the modified ESI source. Two baseline breath samples were taken immediately prior to application and then at 1-3 min intervals thereafter. The ESI source was operated in positive ion mode. A 0.2% NH4OH:water mobile phase was introduced into the source at a flow rate of 0.1 mL/min during sampling to produce ammonium adducts of the analytes of interest.

[3] = after vaginal administration with gel; cited from earlier work
[4] = Breath kinetics of exhaled d6-acetone after oral ingestion of d8-isopropanol; assay type: in vivo; settings: post-ingestion
Description: Either 100 mg d8-isopropanol or 20 mg d8 isopropanol was delivered orally. For oral dosing, 100 or 20 mg of neat d8-isopropanol were placed in a size 4 licap and the licap was swallowed along with 60-100 mL of water. Following administration of d8-isopropanol, exhaled breath was monitored in real time for the presence of d6-acetone and d7-isopropanol using the Orbitrap LCMS.
(§1) Following application or ingestion, d6-acetone and d7-isopropanol levels were monitored in exhaled breath samples using the LTQ-LCMS. Single full breath samples were administered directly into the modified ESI source at 5 min intervals for ˜4 hours. The ESI source was operated in positive ion mode.

[5] = Breath kinetics of exhaled d6-acetone after topical application of d8-isopropanol in carbomer gel; assay type: in vivo; settings: 240 mg transdermal in carbomer gel, post application; maximum still not achieved
Description: 240 mg of d8-isopropanol was mixed with 3 mL of a carbomer-based aloe gel. This gel was applied to an approximately 20 cm^2 area of the inner left forearm and covered with a Tagaderm occlusive dressing. To further reduce the permeability of the dressing, the transparent section was covered with a small section of teldar polymer prior to use.
as §1

CCC(C)O (stereo not shown) [2-butanol]
2-butanone concentration in breath [1]: 500-1,000 ppb | time to appearance of 2-butanone in breath [2]: 2 to 3 min

CCC(C)OC(C)=O (stereo not shown) [2-butyl acetate]
parent ester and metabolites observed in breath [3]: observed in breath

CCCC(C)OC(C)=O (stereo not shown) [2-pentyl acetate]
parent ester and metabolites observed in breath [3]: observed in breath

[2H]OC([2H])(C([2H])([2H])[2H])C([2H])([2H])[2H] [d8-IPA, d8-isopropanol]
time by which D6-acetone levels in exhaled breath began to level out ([4]; 20 mg oral): ≤ 15 min | time by which D6-acetone levels in exhaled breath began to level out ([4]; 100 mg oral): ≤ 15 min | time to maximum concentration of d-6 acetone in exhaled breath [5]: > 200 min

— US20160101194A1, “SMART® Medication Adherence Formulation, Method, Device and System for Topical, Vaginal or Rectal Routes of Administration” (University of Florida Research Foundation, Incorporated, priority 2013, published 2016)
